As usually defined, the GI50 is the concentration that inhibits growth by half.

These results are taken from ChEMBL document CHEMBL1201862, “PubChem BioAssay data set” (2004).

Some test systems named below: 786-0; A549; COLO 205; DU-145; HOP-92; K562; KM12; M14; NCI-H226; OVCAR-4; OVCAR-8; PC-3; RXF 393; SK-MEL-28; SR; SW-620; UO-31; NCI-H522; HCC 2998.
Experiment in all cases: DTP human tumour cell line panel, 48 h

Molecules are shown by their SMILES.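 Step 1: Grow cells in 96-well plates. Step 2: Expose to compound for 48 hours at 5 concentrations. Step 3: Interpolate endpoints linearly; if unreached, use highest concentration. GI50 is the concentration that inhibits growth by half.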 Activity calls are given as the source filed them. No stated cut-off is given here; in the data, active = GI50 up to about 1.1 µM and inactive = higher.

As for `CCN(CC)CCNc1ccc([N+](=O)[O-])c2nc3ccccc3c(N)c12`, the GI50 in the assay on 786-0 is 0.361 µM (active); with A549 it was 0.385 µM (active); in the assay on COLO 205, 0.162 µM (active); with DU-145 it was 2.94 µM (inactive); with HOP-92, 0.755 µM (active); in the assay with K562, 0.316 µM (active). The GI50 in the assay with KM12 was 0.293 µM (active); in the assay on M14, 0.456 µM (active); with NCI-H226, 1.35 µM (inactive); with OVCAR-4, 0.422 µM (active); in the assay on OVCAR-8, 0.361 µM (active); with PC-3, 0.372 µM (active). Also, the GI50 in the assay on RXF 393 was 0.254 µM (active); in the assay on SK-MEL-28 it was 0.998 µM (active); in the assay on SR it was 0.243 µM (active); in the assay with SW-620, 0.208 µM (active); in the assay with UO-31 it was 0.597 µM (active).
In the case of `CC12CCC(C/C1=N\NC(N)=O)C2(C)C` (stereo not drawn), the GI50 in the assay with 786-0, with A549, in the assay on COLO 205, with DU-145, in the assay with HOP-92 and in the assay with K562 was > 100 µM (inactive) in each case. Also, the GI50 in the assay on KM12, with M14, in the assay with NCI-H226, with NCI-H522, in the assay on OVCAR-4 and in the assay with OVCAR-8 was > 100 µM (inactive) throughout. The GI50 in the assay on PC-3, in the assay on SK-MEL-28, in the assay with SR, in the assay with SW-620 and in the assay on UO-31 was > 100 µM (inactive) in each case.
Consider `CN1C(=O)N(C)C(O)C(Cl)(Br)C1=O` (stereo not drawn), for which the GI50 in the assay on 786-0, in the assay on A549, in the assay with COLO 205, with DU-145, in the assay with HCC 2998 and in the assay on K562 was > 100 µM (inactive) in each case. For the same molecule, the GI50 in the assay with KM12, in the assay with M14, in the assay with NCI-H226, with NCI-H522, with OVCAR-8 and in the assay on PC-3 was > 100 µM (inactive) throughout. In addition, the GI50 in the assay on RXF 393, with SK-MEL-28, in the assay with SR, with SW-620 and in the assay on UO-31 was > 100 µM (inactive) each time.
Take `Oc1cc2c(cc1C(c1ccc3c(c1)OCO3)N1CCN(C(c3ccc4c(c3)OCO4)c3cc4c(cc3O)OCO4)CC1)OCO2` (stereo not drawn): the GI50 is 13.1 µM (inactive) with 786-0; 34 µM (inactive) in the assay on A549; 31 µM (inactive) in the assay with COLO 205; 20.3 µM (inactive) in the assay on DU-145; 23.2 µM (inactive) in the assay on HOP-92; 21.4 µM (inactive) with K562. Besides, the GI50 in the assay with KM12 was 16.7 µM (inactive); in the assay on M14, 14.4 µM (inactive); with NCI-H226 it was 16.1 µM (inactive); in the assay on NCI-H522, 14.2 µM (inactive); in the assay with OVCAR-4, 4.36 µM (inactive); in the assay with OVCAR-8, 14 µM (inactive). Also, the GI50 is 28.9 µM (inactive) in the assay on PC-3; 26.2 µM (inactive) in the assay on RXF 393; 2.83 µM (inactive) with SK-MEL-28; 3.61 µM (inactive) in the assay on SR; 12.7 µM (inactive) in the assay on SW-620; 12 µM (inactive) with UO-31.
Turning to `NC(Cc1ccc(OCc2ccccc2)cn1)C(=O)O` (stereo not drawn), the GI50 in the assay with 786-0, in the assay on A549, in the assay with COLO 205, in the assay on DU-145, with HCC 2998 and in the assay with K562 was > 100 µM (inactive) each time. Also, the GI50 in the assay on KM12, in the assay on NCI-H226, in the assay on NCI-H522, in the assay on OVCAR-8, in the assay on PC-3 and in the assay on RXF 393 was > 100 µM (inactive) in each case. The GI50 with SK-MEL-28, with SR, in the assay on SW-620 and in the assay on UO-31 was > 100 µM (inactive) each time.
As for `COC(=O)C(Cc1c[nH]c2ccccc12)NP(=O)(O)OCC1OC(n2cc(I)c(=O)[nH]c2=O)CC1O` (stereo not drawn), the GI50 with 786-0, in the assay on A549, in the assay with COLO 205, in the assay with DU-145, in the assay on HOP-92 and in the assay with K562 was > 100 µM (inactive) in each case. Further, the GI50 in the assay with KM12, in the assay on M14, with NCI-H226, in the assay on NCI-H522, in the assay on OVCAR-4 and in the assay with OVCAR-8 was > 100 µM (inactive) each time. Besides, the GI50 in the assay on PC-3, with SK-MEL-28, with SR, in the assay with SW-620 and in the assay with UO-31 was > 100 µM (inactive) throughout.
Regarding `CC(Cl)CN1c2ccccc2Sc2ccc(Cl)cc21` (stereo not drawn), the GI50 in the assay on 786-0, with A549, with COLO 205, in the assay on DU-145, in the assay with HCC 2998 and in the assay on HOP-92 was > 10 µM (inactive) in each case. Further, the GI50 in the assay on K562, with KM12, in the assay with M14, in the assay with NCI-H226, in the assay with NCI-H522 and in the assay with OVCAR-4 was > 10 µM (inactive) in each case. Besides, the GI50 in the assay on OVCAR-8, with PC-3, in the assay with RXF 393, in the assay on SK-MEL-28, in the assay with SW-620 and with UO-31 was > 10 µM (inactive) each time.
Regarding `COc1cc(O)c2c(c1)OCC(Cc1ccc(O)cc1)C2=O` (stereo not drawn), the GI50 is > 100 µM (inactive) in the assay on 786-0; > 100 µM (inactive) in the assay on A549; > 100 µM (inactive) in the assay with COLO 205; > 100 µM (inactive) in the assay on DU-145; 37.9 µM (inactive) in the assay on HOP-92; > 100 µM (inactive) with K562. In addition, the GI50 in the assay on KM12 is > 100 µM (inactive); with M14, > 100 µM (inactive); in the assay with NCI-H226, > 100 µM (inactive); with NCI-H522, > 100 µM (inactive); in the assay with OVCAR-4 it was 86.3 µM (inactive); in the assay on OVCAR-8, > 100 µM (inactive). In addition, the GI50 in the assay on PC-3 was > 100 µM (inactive); in the assay on RXF 393, 21.1 µM (inactive); with SK-MEL-28, > 100 µM (inactive); in the assay on SR, 55.8 µM (inactive); with SW-620, > 100 µM (inactive); in the assay on UO-31, > 100 µM (inactive).
